Consider six molecules from patent US12139520B2 (priority 2020, dated 2024).

Numbered stars: 1 amine (or outer) side, 2 acyl side, 3 side chain; on linkers, the order of the positions; unused ones are H or OH. Bridge positions count the residues as written; N and C are the ends. Square brackets hold non-standard residues; d marks the D form. Peptide text beside a SMILES is read from it. * marks the point of attachment. C20 diacid = O=C(O)CCCCCCCCCCCCCCCCCCC(=O)*; γGlu = O=C(O)[C@H](CCC(=O)[*:2])N[*:1]; Hyp = O=C(O)[C@@H]1C[C@@H](O)CN1

The target in one series is T1, hAMY3 receptor (Homo sapiens, UniProt O60896+P30988).
T1 sequence (P30988 25-474): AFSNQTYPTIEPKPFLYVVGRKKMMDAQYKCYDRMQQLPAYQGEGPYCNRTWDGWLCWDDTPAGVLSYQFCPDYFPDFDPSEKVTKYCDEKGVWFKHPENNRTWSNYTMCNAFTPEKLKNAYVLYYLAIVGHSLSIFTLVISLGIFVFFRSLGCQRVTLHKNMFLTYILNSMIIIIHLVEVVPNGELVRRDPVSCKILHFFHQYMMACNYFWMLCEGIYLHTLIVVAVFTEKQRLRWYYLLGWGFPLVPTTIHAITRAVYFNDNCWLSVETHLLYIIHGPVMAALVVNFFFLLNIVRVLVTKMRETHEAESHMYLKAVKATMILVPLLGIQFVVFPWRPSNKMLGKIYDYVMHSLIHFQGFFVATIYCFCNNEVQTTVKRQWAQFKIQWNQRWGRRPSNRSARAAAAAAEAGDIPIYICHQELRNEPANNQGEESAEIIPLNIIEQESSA
T1 sequence (O60896 24-148 partner): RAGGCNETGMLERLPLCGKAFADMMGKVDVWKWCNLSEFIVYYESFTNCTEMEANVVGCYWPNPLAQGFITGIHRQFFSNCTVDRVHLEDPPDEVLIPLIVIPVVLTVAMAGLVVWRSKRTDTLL
The experiment in a line: cAMP assay for in vitro receptor activation, hAMY3-R. The settings on record: cAMP assay, hAMY3 receptor; read-out: hAMY3R EC50. It counts as cell-based. Summed up:
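Stable hAMY3 cells; DPBS + 0.05% casein + 0.5 mM IBMX; graded compound doses, 30 min, RT; cAMP via HTRF Gs kit, TR-FRET read at 1 h.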
(cAMP levels reflect the balance of adenylyl cyclase and phosphodiesterase activity.)
For `CC[C@H](C)[C@H](NC(=O)[C@H](CCC(N)=O)NC(=O)[C@H](Cc1c[nH]cn1)NC(=O)[C@H](C)NC(=O)[C@H](CC(C)C)NC(=O)[C@H](CCCNC(=N)N)NC(=O)[C@H](CCC(N)=O)NC(=O)[C@@H](NC(=O)[C@@H](NC(=O)[C@@H]1CSSC[C@H](NC(=O)CN)C(=O)N[C@@H](CCCNC(=N)N)C(=O)N[C@@H](Cc2ccccc2)C(=O)NCC(=O)N[C@@H]([C@@H](C)O)C(=O)N1)[C@@H](C)O)C(C)C)C(=O)N[C@@H](Cc1ccc(O)cc1)C(=O)N[C@@H](CCC(N)=O)C(=O)N[C@@H](Cc1ccccc1)C(=O)N[C@H](C(=O)N[C@@H](CC(=O)O)C(=O)N[C@@H](CCCCN)C(=O)N[C@@H](CC(=O)O)C(=O)N[C@@H](CCCCN)C(=O)N[C@@H](CC(=O)O)C(=O)N[C@@H](CC(N)=O)C(=O)N[C@H](C(=O)N[C@@H](C)C(=O)N1CCC[C@H]1C(=O)N[C@@H](CCCNC(=N)N)C(=O)N[C@@H](CO)C(=O)N[C@@H](CCCCN)C(=O)N[C@H](C(=O)N[C@@H](CO)C(=O)N1CCC[C@H]1C(=O)N[C@@H](CC(N)=O)C(=O)NCC(=O)N[C@@H](Cc1ccc(O)cc1)C(N)=O)C(C)C)C(C)C)[C@@H](C)O` [compound 384] (H-GCRFGTCTVQRLAHQIYQFTDKDKDNVAPRSKVSPNGY-NH2; disulfide 2-7; N-terminus assumed), the 50% effective concentration (EC50) amounted to 0.036 nM.
As to `CC(C)C[C@H](NC(=O)[C@H](CCCNC(=N)N)NC(=O)[C@H](CCC(N)=O)NC(=O)[C@@H](NC(=O)[C@@H](NC(=O)[C@@H]1CSSC[C@H](NC(=O)CNC(=O)CC[C@H](NC(=O)CCCCCCCCCCCCCCCCCCC(=O)O)C(=O)O)C(=O)N[C@@H](CCCNC(=N)N)C(=O)N[C@@H](Cc2ccccc2)C(=O)NCC(=O)N[C@@H]([C@@H](C)O)C(=O)N1)[C@@H](C)O)C(C)C)C(=O)N[C@@H](C)C(=O)N[C@@H](CC(N)=O)C(=O)N[C@@H](Cc1ccccc1)C(=O)N[C@@H](CC(C)C)C(=O)N[C@@H](Cc1ccc(O)cc1)C(=O)N[C@@H](CCC(N)=O)C(=O)N[C@@H](Cc1ccccc1)C(=O)N[C@H](C(=O)N[C@@H](CC(=O)O)C(=O)N[C@@H](CCCCN)C(=O)N[C@@H](CC(=O)O)C(=O)N[C@@H](CCCCN)C(=O)N[C@@H](CC(=O)O)C(=O)N[C@@H](CC(N)=O)C(=O)N[C@H](C(=O)N[C@@H](C)C(=O)N1CCC[C@H]1C(=O)N[C@@H](CCCNC(=N)N)C(=O)N[C@H](C(=O)N[C@@H](CC(N)=O)C(=O)N[C@H](C(=O)NCC(=O)N1CCC[C@H]1C(=O)N[C@@H](CCC(N)=O)C(=O)NCC(=O)N[C@@H](Cc1ccc(O)cc1)C(N)=O)C(C)C)[C@@H](C)O)C(C)C)[C@@H](C)O` [compound 386] ({C20 diacid-γGlu}-GCRFGTCTVQRLANFLYQFTDKDKDNVAPRTNVGPQGY-NH2; disulfide 2-7), the EC50 was determined as 0.039 nM.
As for `CC[C@H](C)[C@H](NC(=O)[C@H](CCCCN)NC(=O)[C@H](CO)NC(=O)[C@H](CCCNC(=N)N)NC(=O)[C@@H]1CCCN1C(=O)[C@H](C)NC(=O)[C@@H](NC(=O)[C@H](CC(N)=O)NC(=O)[C@H](CC(=O)O)NC(=O)[C@H](CCCCN)NC(=O)[C@H](CC(=O)O)NC(=O)[C@H](CCCCN)NC(=O)[C@H](CC(=O)O)NC(=O)[C@@H](NC(=O)[C@H](Cc1ccccc1)NC(=O)[C@H](CCC(N)=O)NC(=O)[C@@H](NC(=O)[C@H](CC(C)C)NC(=O)[C@H](Cc1ccccc1)NC(=O)[C@H](CC(N)=O)NC(=O)[C@H](C)NC(=O)[C@H](CC(C)C)NC(=O)[C@H](CCCNC(=N)N)NC(=O)[C@H](CCC(N)=O)NC(=O)[C@@H](NC(=O)[C@H](C)NC(=O)[C@@H]1CSSC[C@H](NC(=O)[C@H](CCCCN)NC(=O)CC[C@H](NC(=O)CCCCCCCCCCCCCCCCCCC(=O)O)C(=O)O)C(=O)N[C@@H](CC(N)=O)C(=O)N[C@@H](Cc2ccccc2)C(=O)N[C@@H](C)C(=O)N[C@@H]([C@@H](C)O)C(=O)N1)[C@@H](C)O)C(C)C)[C@@H](C)O)C(C)C)C(=O)NCC(=O)N1CCC[C@H]1C(=O)N[C@@H](CCC(N)=O)C(=O)NCC(=O)N[C@@H](Cc1ccc(O)cc1)C(N)=O` [compound 389] ({C20 diacid-γGlu}-KCNFATCATQRLANFLVQFTDKDKDNVAPRSKIGPQGY-NH2; disulfide 2-7), the EC50 turned out to be 0.045 nM.
The same measure, in the same setting: in the case of `CC[C@H](C)[C@H](NC(=O)[C@H](CCCCN)NC(=O)[C@@H](NC(=O)[C@H](CCCNC(=N)N)NC(=O)[C@@H]1CCCN1C(=O)[C@H](C)NC(=O)[C@@H](NC(=O)[C@H](CC(N)=O)NC(=O)[C@H](CC(=O)O)NC(=O)[C@H](CCCCN)NC(=O)[C@H](CC(=O)O)NC(=O)[C@H](CCCCN)NC(=O)[C@H](CC(=O)O)NC(=O)[C@@H](NC(=O)[C@H](Cc1ccccc1)NC(=O)[C@H](CCC(N)=O)NC(=O)[C@H](Cc1ccc(O)cc1)NC(=O)[C@H](CC(C)C)NC(=O)[C@H](Cc1ccccc1)NC(=O)[C@H](Cc1c[nH]cn1)NC(=O)[C@H](C)NC(=O)[C@H](CC(C)C)NC(=O)[C@H](CCCNC(=N)N)NC(=O)[C@H](CCC(N)=O)NC(=O)[C@@H](NC(=O)[C@@H](NC(=O)[C@@H]1CSSC[C@H](NC(=O)CNC(=O)CC[C@H](NC(=O)CCCCCCCCCCCCCCCCCCC(=O)O)C(=O)O)C(=O)N[C@@H](CCCNC(=N)N)C(=O)N[C@@H](Cc2ccccc2)C(=O)NCC(=O)N[C@@H]([C@@H](C)O)C(=O)N1)[C@@H](C)O)C(C)C)[C@@H](C)O)C(C)C)[C@@H](C)O)C(=O)NCC(=O)N1CCC[C@H]1C(=O)N[C@@H](CCC(N)=O)C(=O)NCC(=O)N[C@@H](Cc1ccc(O)cc1)C(N)=O` [compound 390] ({C20 diacid-γGlu}-GCRFGTCTVQRLAHFLYQFTDKDKDNVAPRTKIGPQGY-NH2; disulfide 2-7) it was 0.048 nM.

Tested on in another series: not listed separately
Kind of series: Physical stability of peptide analogues (Thioflavin T fibrillation). The format is physicochemical. To be noted: maximum ThT signal normalized between hAMY maximum and buffer background; 40° C., shaking, four days; pH 7 per table title. The procedure:
General Protocols for Determination of Physical Stability of Peptide Analogues
Peptides were dissolved in buffers (50 mM sodium acetate at pH 4 or 50 mM sodium phosphate at pH 7) and incubated for one hour. The samples were then divided into two replicates of 80 μl in a black 384 well plate (μ-clear, Greiner Bio-One) and mixed with Thioflavin T (ThT) to a final concentration of 4 μM. The plate was sealed and placed in a plate reader (CLARIOstar, BMG) where the temperature was set at 40° C. during the course of the experiment. The samples were further stressed by shaking the plate at 700 rpm (linear) for five minutes before every measurement. The fluorescence was measured every 10 min for four days by exciting the ThT at 450 nm and measuring the emission at 480 nm. For each peptide, the ThT signal over time was smoothened using Local Polynomial Regression fitting (LOESS) as implemented in the statistical programming environment R. For the smoothened data, the maximum ThT signal was normalized in percent between the maximum ThT signal for hAMY and the buffer background.
As for `CC[C@H](C)[C@H](NC(=O)[C@H](CCC(N)=O)NC(=O)[C@H](Cc1c[nH]cn1)NC(=O)[C@H](C)NC(=O)[C@H](CC(C)C)NC(=O)[C@H](CCCCN)NC(=O)[C@H](CCC(N)=O)NC(=O)[C@@H](NC(=O)[C@@H](NC(=O)[C@@H]1CSSC[C@H](NC(=O)CN)C(=O)N[C@@H](CCCNC(=N)N)C(=O)N[C@@H](Cc2ccccc2)C(=O)NCC(=O)N[C@@H]([C@@H](C)O)C(=O)N1)[C@@H](C)O)C(C)C)C(=O)N[C@@H](Cc1ccc(O)cc1)C(=O)N[C@@H](CCC(N)=O)C(=O)N[C@@H](Cc1ccccc1)C(=O)N[C@H](C(=O)N[C@@H](CC(=O)O)C(=O)N[C@@H](CCCCN)C(=O)N[C@@H](CC(=O)O)C(=O)N[C@@H](CCCCN)C(=O)N[C@@H](CC(=O)O)C(=O)N[C@@H](CC(N)=O)C(=O)N[C@H](C(=O)N[C@@H](C)C(=O)N1CCC[C@H]1C(=O)N[C@@H](CCCNC(=N)N)C(=O)N[C@@H](CO)C(=O)N[C@@H](CCCCN)C(=O)N[C@H](C(=O)N[C@@H](CO)C(=O)N1CCC[C@H]1C(=O)N[C@@H](CCC(N)=O)C(=O)NCC(=O)N[C@@H](Cc1ccc(O)cc1)C(N)=O)[C@@H](C)CC)C(C)C)[C@@H](C)O` [compound 1], the “Max ThT signal (%)” value is 2.600%.
`CC[C@H](C)[C@H](NC(=O)[C@H](CCC(N)=O)NC(=O)[C@H](Cc1c[nH]cn1)NC(=O)[C@H](C)NC(=O)[C@H](CC(C)C)NC(=O)[C@H](CCCNC(=N)N)NC(=O)[C@H](CCC(N)=O)NC(=O)[C@@H](NC(=O)[C@@H](NC(=O)[C@@H]1CSSC[C@H](NC(=O)[C@@H](N)CCCCN)C(=O)N[C@@H](CC(N)=O)C(=O)N[C@@H]([C@@H](C)O)C(=O)N[C@@H](C)C(=O)N[C@@H]([C@@H](C)O)C(=O)N1)[C@@H](C)O)C(C)C)C(=O)N[C@@H](Cc1ccc(O)cc1)C(=O)N[C@@H](CCC(N)=O)C(=O)N[C@@H](Cc1ccccc1)C(=O)N[C@H](C(=O)N[C@@H](CCCCN)C(=O)N[C@@H](CC(=O)O)C(=O)N[C@@H](CCCCN)C(=O)N[C@@H](CC(=O)O)C(=O)N[C@@H](CC(N)=O)C(=O)N[C@H](C(=O)N[C@@H](C)C(=O)N1CCC[C@H]1C(=O)N1CCC[C@H]1C(=O)N[C@H](C(=O)N[C@@H](CC(N)=O)C(=O)N[C@H](C(=O)NCC(=O)N[C@@H](CO)C(=O)N[C@@H](CC(N)=O)C(=O)NCC(=O)N1C[C@H](O)C[C@H]1C(N)=O)C(C)C)[C@@H](C)O)C(C)C)[C@@H](C)O` [compound 29] (H-KCNTATCTVQRLAHQIYQFTKDKDNVAPPTNVGSNG[Hyp]-NH2; disulfide 2-7; N-terminus assumed): the “Max ThT signal (%)” value amounted to 9.300%.

As usually defined, the EC50 is the concentration at which the effect is half-maximal.
